Experimental data from patent publication EP4722207A1, “OXOISOINDOLINYL-SUBSTITUTED TETRAHYDROPYRIMIDINEDIONE DERIVATIVE AND USE THEREOF” (Gluetacs Therapeutics (Shanghai) Co., Ltd., priority 2023, dated 2024).

Assays:
Assay type in all cases: cell-based
Conditions in all cases: 24 hours of compound treatment, 50 nM and 500 nM
IKZF2 = target: T1, IKZF2 (Homo sapiens, UniProt Q96SW2+Q9UKS7); assay: Western-blot assay, substrate protein degradation in hPBMCs: IKZF2
T1 construct: effects of the compounds of the present disclosure on the expression of target proteins in cells; endogenous in cells; host or cells: human PBMCs (hPBMCs)
T1 sequence (Q9UKS7 whole entry): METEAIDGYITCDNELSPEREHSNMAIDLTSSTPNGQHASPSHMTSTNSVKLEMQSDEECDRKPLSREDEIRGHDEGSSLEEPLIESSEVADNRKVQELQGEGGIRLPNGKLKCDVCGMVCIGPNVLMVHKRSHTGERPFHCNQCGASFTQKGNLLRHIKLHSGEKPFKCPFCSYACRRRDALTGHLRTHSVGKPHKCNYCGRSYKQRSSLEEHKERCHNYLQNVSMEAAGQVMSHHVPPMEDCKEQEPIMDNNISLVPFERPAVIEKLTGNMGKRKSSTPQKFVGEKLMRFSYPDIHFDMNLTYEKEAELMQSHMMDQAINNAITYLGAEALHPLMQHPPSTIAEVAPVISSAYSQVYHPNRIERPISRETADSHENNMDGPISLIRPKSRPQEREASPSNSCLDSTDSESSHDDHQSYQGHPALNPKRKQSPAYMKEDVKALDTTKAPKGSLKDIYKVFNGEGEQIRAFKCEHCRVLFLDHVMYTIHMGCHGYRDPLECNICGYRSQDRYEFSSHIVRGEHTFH
T1 sequence (Q96SW2 whole entry): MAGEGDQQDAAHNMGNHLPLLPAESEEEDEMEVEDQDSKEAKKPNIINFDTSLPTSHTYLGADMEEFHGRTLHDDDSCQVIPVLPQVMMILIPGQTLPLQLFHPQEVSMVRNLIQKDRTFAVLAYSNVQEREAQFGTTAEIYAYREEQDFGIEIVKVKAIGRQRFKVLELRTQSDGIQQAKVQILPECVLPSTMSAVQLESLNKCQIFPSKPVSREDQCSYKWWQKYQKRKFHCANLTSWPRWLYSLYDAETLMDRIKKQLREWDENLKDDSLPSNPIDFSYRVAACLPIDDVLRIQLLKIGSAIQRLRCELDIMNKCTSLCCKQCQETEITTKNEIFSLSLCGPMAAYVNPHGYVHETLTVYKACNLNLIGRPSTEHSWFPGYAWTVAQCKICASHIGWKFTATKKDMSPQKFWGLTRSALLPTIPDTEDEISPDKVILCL
T1 sequence (Q16531 whole entry partner): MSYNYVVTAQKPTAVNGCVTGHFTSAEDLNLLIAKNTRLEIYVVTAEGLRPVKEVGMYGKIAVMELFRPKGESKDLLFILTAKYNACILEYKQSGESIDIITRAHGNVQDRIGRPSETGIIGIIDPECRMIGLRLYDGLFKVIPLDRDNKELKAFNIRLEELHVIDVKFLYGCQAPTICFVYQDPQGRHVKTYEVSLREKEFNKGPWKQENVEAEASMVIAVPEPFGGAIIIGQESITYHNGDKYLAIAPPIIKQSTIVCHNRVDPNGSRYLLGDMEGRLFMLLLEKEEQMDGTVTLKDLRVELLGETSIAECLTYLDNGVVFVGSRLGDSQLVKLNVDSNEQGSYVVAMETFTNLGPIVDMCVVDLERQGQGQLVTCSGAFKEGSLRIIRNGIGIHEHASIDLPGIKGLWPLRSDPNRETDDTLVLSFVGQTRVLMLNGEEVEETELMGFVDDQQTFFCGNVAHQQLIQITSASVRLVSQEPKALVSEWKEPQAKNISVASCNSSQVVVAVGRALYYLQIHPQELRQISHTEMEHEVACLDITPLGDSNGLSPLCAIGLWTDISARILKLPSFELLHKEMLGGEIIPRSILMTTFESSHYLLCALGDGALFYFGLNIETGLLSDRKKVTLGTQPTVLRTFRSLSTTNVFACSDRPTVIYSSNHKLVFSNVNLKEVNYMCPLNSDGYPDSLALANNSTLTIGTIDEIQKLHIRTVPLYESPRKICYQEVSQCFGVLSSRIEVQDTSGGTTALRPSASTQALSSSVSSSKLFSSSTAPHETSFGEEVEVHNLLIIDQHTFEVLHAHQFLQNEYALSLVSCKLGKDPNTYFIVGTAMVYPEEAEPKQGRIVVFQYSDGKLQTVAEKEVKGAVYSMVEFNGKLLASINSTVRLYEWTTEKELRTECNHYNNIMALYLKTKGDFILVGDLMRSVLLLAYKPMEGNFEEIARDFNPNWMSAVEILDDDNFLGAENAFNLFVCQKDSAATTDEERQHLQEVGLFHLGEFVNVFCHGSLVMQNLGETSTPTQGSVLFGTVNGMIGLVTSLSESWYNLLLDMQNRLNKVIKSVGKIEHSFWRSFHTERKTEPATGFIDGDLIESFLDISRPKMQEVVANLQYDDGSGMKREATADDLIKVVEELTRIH

IKZF3 = target: T2, IKZF3 (Homo sapiens, UniProt Q96SW2+Q9UKT9); assay: Western-blot assay, substrate protein degradation in hPBMCs: IKZF3
T2 construct: effects of the compounds of the present disclosure on the expression of target proteins in cells; endogenous in cells; host or cells: human PBMCs (hPBMCs)
T2 sequence (Q9UKT9 whole entry): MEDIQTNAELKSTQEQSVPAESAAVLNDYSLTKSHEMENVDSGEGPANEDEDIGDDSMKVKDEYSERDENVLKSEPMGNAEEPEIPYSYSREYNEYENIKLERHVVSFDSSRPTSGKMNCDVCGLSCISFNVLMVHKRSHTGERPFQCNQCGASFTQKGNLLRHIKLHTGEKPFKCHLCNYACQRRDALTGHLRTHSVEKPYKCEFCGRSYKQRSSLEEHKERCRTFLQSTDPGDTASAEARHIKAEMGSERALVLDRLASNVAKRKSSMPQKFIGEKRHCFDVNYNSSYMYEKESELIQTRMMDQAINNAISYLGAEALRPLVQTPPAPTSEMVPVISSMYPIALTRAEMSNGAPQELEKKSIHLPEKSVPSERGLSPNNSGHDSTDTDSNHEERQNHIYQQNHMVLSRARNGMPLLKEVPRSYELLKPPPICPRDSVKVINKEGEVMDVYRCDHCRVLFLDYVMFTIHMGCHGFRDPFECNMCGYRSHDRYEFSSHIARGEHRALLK
T2 sequence (Q96SW2 whole entry): as the sequence (Q96SW2 whole entry) above
T2 sequence (Q16531 whole entry partner): as the sequence (Q16531 whole entry partner) above

WEE1 = target: T3, WEE1 (Homo sapiens, UniProt P30291+Q96SW2); assay: Western-blot assay, substrate protein degradation in hPBMCs: WEE1
T3 construct: effects of the compounds of the present disclosure on the expression of target proteins in cells; endogenous in cells; host or cells: human PBMCs (hPBMCs)
T3 sequence (P30291 whole entry): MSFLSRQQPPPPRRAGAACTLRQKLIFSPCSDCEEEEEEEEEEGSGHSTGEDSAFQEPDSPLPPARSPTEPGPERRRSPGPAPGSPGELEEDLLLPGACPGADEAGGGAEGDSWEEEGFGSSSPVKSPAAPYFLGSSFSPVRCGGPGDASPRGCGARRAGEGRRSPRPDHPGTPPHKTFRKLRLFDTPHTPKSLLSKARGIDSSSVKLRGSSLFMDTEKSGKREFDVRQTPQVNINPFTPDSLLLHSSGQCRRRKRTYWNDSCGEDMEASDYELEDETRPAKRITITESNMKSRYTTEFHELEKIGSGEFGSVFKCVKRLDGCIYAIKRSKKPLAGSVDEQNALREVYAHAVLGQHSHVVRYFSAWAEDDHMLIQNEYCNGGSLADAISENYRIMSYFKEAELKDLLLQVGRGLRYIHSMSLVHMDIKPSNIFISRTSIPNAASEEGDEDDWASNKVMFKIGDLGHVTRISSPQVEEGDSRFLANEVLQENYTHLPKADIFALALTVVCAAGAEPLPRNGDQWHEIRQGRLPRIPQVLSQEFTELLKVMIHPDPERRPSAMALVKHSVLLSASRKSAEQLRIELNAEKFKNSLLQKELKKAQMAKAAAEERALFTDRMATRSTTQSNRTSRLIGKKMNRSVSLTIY
T3 sequence (Q96SW2 whole entry): as the sequence (Q96SW2 whole entry) above
T3 sequence (Q16531 whole entry partner): as the sequence (Q16531 whole entry partner) above

GSPT1 = target: T4, GSPT1 (Homo sapiens, UniProt P15170+Q96SW2); assay: Western-blot assay, substrate protein degradation in hPBMCs: GSPT1
T4 construct: effects of the compounds of the present disclosure on the expression of target proteins in cells; endogenous in cells; host or cells: human PBMCs (hPBMCs)
T4 sequence (P15170 whole entry): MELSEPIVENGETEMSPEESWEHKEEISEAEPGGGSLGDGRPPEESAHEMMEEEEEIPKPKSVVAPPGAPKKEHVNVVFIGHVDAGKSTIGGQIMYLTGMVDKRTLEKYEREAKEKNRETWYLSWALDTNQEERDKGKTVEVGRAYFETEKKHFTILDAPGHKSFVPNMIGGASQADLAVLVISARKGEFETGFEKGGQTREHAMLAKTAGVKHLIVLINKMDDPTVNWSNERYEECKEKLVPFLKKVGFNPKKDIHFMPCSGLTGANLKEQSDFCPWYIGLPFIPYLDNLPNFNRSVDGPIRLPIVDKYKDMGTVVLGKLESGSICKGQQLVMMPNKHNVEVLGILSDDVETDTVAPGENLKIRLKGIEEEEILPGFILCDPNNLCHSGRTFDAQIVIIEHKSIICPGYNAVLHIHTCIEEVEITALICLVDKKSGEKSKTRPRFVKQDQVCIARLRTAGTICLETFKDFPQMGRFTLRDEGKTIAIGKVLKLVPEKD
T4 sequence (Q96SW2 whole entry): as the sequence (Q96SW2 whole entry) above
T4 sequence (Q16531 whole entry partner): as the sequence (Q16531 whole entry partner) above

CK1α = target: T5, CK1α (Homo sapiens, UniProt P48729+Q96SW2); assay: Western-blot assay, substrate protein degradation in hPBMCs: CK1α
T5 construct: effects of the compounds of the present disclosure on the expression of target proteins in cells; endogenous in cells; host or cells: human PBMCs (hPBMCs)

IKZF1 = target: T6, IKZF1 (Homo sapiens, UniProt Q13422+Q96SW2); assay: Western-blot assay, substrate protein degradation in hPBMCs: IKZF1
T6 construct: effects of the compounds of the present disclosure on the expression of target proteins in cells; endogenous in cells; host or cells: human PBMCs (hPBMCs)
T6 sequence (Q13422 whole entry): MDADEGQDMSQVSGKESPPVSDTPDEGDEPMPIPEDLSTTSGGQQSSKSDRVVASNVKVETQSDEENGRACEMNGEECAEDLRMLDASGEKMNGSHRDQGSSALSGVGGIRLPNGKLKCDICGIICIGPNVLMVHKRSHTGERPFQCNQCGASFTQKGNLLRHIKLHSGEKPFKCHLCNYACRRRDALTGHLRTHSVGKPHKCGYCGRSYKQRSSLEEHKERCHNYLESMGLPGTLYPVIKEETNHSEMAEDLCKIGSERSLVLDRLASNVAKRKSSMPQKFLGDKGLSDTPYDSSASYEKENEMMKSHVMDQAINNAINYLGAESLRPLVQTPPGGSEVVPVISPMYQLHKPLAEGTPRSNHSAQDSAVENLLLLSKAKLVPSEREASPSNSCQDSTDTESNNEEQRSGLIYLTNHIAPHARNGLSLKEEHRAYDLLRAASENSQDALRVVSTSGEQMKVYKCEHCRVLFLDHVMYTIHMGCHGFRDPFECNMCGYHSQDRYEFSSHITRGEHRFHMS
T6 sequence (Q96SW2 whole entry): as the sequence (Q96SW2 whole entry) above
T6 sequence (Q16531 whole entry partner): as the sequence (Q16531 whole entry partner) above

SMILES | substrate protein remaining % IKZF2 (IKZF2) | substrate protein remaining % IKZF3 (IKZF3) | substrate protein remaining % WEE1 (WEE1) | substrate protein remaining % GSPT1 (GSPT1) | substrate protein remaining % CK1α (CK1α) | substrate protein remaining % IKZF1 (IKZF1)
O=C1CCN(N2Cc3cc(CN4CCC(=C5CCOc6cc(F)ccc65)CC4)ccc3C2=O)C(=O)N1 [GT-07588, 1-(5-((4-(7-fluorochroman-4-ylidene)piperidin-1-yl)methyl)-1-oxoisoindolin-2-yl)dihydropyrimidine-2,4(1H,3H)-dione] | B (80%< substrate protein remaining %≤ 100%) | B (80%< substrate protein remaining %≤ 100%) | B (80%< substrate protein remaining %≤ 100%) | A (0% ≤ substrate protein remaining % ≤ 80%) | B (80%< substrate protein remaining %≤ 100%) | B (80%< substrate protein remaining %≤ 100%)
O=C1CCN(N2Cc3cc(CN4CCC(c5cccc6c(F)cccc56)CC4)ccc3C2=O)C(=O)N1 [GT-07589, 1-(5-((4-(5-fluoronaphthalen-1-yl)piperidin-1-yl)methyl)-1-oxoisoindolin-2-yl)dihydropyrimidine-2,4(1H,3H)-dione] | B (80%< substrate protein remaining %≤ 100%) | B (80%< substrate protein remaining %≤ 100%) | B (80%< substrate protein remaining %≤ 100%) | A (0% ≤ substrate protein remaining % ≤ 80%) | B (80%< substrate protein remaining %≤ 100%) | B (80%< substrate protein remaining %≤ 100%)
O=C1CCN(N2Cc3cc(CN4CCC(c5noc6ccccc56)CC4)ccc3C2=O)C(=O)N1 [GT-07642, 1-(5-((4-(benzo[d]isoxazol-3-yl)piperidin-1-yl)methyl)-1-oxoisoindolin-2-yl)dihydropyrimidine-2,4(1H,3H)-dione] | B (80%< substrate protein remaining %≤ 100%) | B (80%< substrate protein remaining %≤ 100%) | B (80%< substrate protein remaining %≤ 100%) | A (0% ≤ substrate protein remaining % ≤ 80%) | B (80%< substrate protein remaining %≤ 100%) | B (80%< substrate protein remaining %≤ 100%)
O=C1CCN(N2C(=O)c3ccc(CN4CC=C(c5n[nH]c6cc(F)ccc56)CC4)cc3C2=O)C(=O)N1 [GT-07643, 2-(2,4-dioxotetrahydropyrimidin-1(2H)-yl)-5-((4-(6-fluoro-1H-indazol-3-yl)-3,6-dihydropyridin-1(2H)-yl)methyl)isoindoline-1,3-dione] | B (80%< substrate protein remaining %≤ 100%) | B (80%< substrate protein remaining %≤ 100%) | B (80%< substrate protein remaining %≤ 100%) | A (0% ≤ substrate protein remaining % ≤ 80%) | B (80%< substrate protein remaining %≤ 100%) | B (80%< substrate protein remaining %≤ 100%)
O=C1CCN(N2Cc3cc(CN4CCC(c5cccc6cnccc56)CC4)ccc3C2=O)C(=O)N1 [GT-07644, 1-(5-((4-(isoquinolin-5-yl)piperidin-1-yl)methyl)-1-oxoisoindolin-2-yl)dihydropyrimidine-2,4(1H,3H)-dione] | B (80%< substrate protein remaining %≤ 100%) | B (80%< substrate protein remaining %≤ 100%) | B (80%< substrate protein remaining %≤ 100%) | A (0% ≤ substrate protein remaining % ≤ 80%) | B (80%< substrate protein remaining %≤ 100%) | B (80%< substrate protein remaining %≤ 100%)
